# According to US5082942A, “Novel derivatives of tetrahydro-2,3,6,7,1H,5H,11H-(1)benzopyrano(6,7,8,ij)quinolizinone-11 usable as markers of organic compounds for the detection of said compounds by chemiluminescence or fluorescence” (Laboratories Eurobio, priority 1988, dated 1992):
# Assays:
# [1] = Chemiluminescence measurements; format: physicochemical; settings: for RC, quantum efficiency of chemiluminescence: 10^-3 mole/l coumarin solution; for RE, excitation efficiency: RC = Rex × RF
# [2] = Fluorescence and absorbance measurements; format: physicochemical; settings: for ε, molecular extinction coefficient: 365 nm; for S, fluorescence sensitivity: Table 2; for RF, quantum efficiency of fluorescence: acetone and ethylacetate 75:25, 10^-6 mole/l, 20°C, relative to quinine disulphate
# [3] = Solubility in organic solvents; format: physicochemical; settings: organic solvent or mixture; in tetrahydrofuran, acetone or methanol
# [4] = Stability of a solution in tetrahydrofuran (high pressure liquid chromatography and fluorimetric detection); format: physicochemical; settings: 2.10^-3 mole/l in tetrahydrofuran
# Text: The stability of a 2.10^-3 mole/l solution of luminarine-1 in tetrahydrofuran was studied by high pressure liquid chromatography and fluorimetric detection.
# [5] = 2 mg/l in 0.1 N H2SO4; Parker method; cited from earlier work
# [6] = TCPO and H2O2, (C102) 1.4 × 10^-3
# [7] = TCPO and H2O2, (C102) 1.4 × 10^-6
# [8] = TCPO and H2O2, (C102) 1.4 × 10^-7
# [9] = TCPO and H2O2, (C102) 1.4 × 10^-8
# [10] = TCPO and H2O2, (C102) 1.4 × 10^-9
structure (smiles),measurement,setting,value
"CCN(CC)c1ccc2c(C)cc(=O)oc2c1 [COUMARIN-1, dimethylamino-7 methyl-4 coumarin]","RC, quantum efficiency of chemiluminescence",[1]; DNPO and H2O2,0.18 10^2 E · mole^-1
same,"RE, excitation efficiency",[1]; DNPO and H2O2,0.33 10^-2
same,"RC, quantum efficiency of chemiluminescence","[1]; TCPO and H2O2, pH 7.5",0.37 10^2 E · mole^-1
same,"RE, excitation efficiency","[1]; TCPO and H2O2, pH 7.5",0.0067
same,"ε, molecular extinction coefficient",[2],38 000
same,"S, fluorescence sensitivity",[2],57 10^3
same,"RF, quantum efficiency of fluorescence",[2],0.55
"Cc1cc(=O)oc2c3c4c(cc12)CCCN4CCC3 [COUMARIN-102, tetrahydro-2,3,5,6,7,1H,5H,11H-(1)-benzopyrano (6,7,8-ij) methyl-9 quinolizinone-11]","RC, quantum efficiency of chemiluminescence",[1]; DNPO and H2O2,0.26 10^2 E · mole^-1
same,"RE, excitation efficiency",[1]; DNPO and H2O2,0.45 10^-2
same,chemiluminescence efficiency RC as a function of concentration,[1]; TCPO and H2O2,increases with the coumarin 102 concentration
same,"RC, quantum efficiency of chemiluminescence","[1]; TCPO and H2O2, pH 7.5",0.37 10^2 E · mole^-1
same,"RE, excitation efficiency","[1]; TCPO and H2O2, pH 7.5",0.0065
same,"Imax, maximum intensity",[1]; [6],301 A.U.
same,"RC, chemiluminescence efficiency",[1]; [6],12.0 10^4 E · mol^-1
same,"T1/2, time for reaching half the maximum intensity after the maximum time",[1]; [6],6 s
same,"Tmax, time for reaching the maximum intensity",[1]; [6],12 s
same,"Imax, maximum intensity",[1]; [7],75 A.U.
same,"RC, chemiluminescence efficiency",[1]; [7],4.14 10^4 E · mol^-1
same,"T1/2, time for reaching half the maximum intensity after the maximum time",[1]; [7],9 s
same,"Tmax, time for reaching the maximum intensity",[1]; [7],12 s
same,"Imax, maximum intensity",[1]; [8],31 A.U.
same,"RC, chemiluminescence efficiency",[1]; [8],2.31 10^4 E · mol^-1
same,"T1/2, time for reaching half the maximum intensity after the maximum time",[1]; [8],7.2 s
same,"Tmax, time for reaching the maximum intensity",[1]; [8],12 s
same,"Imax, maximum intensity",[1]; [9],3.2 A.U.
same,"RC, chemiluminescence efficiency",[1]; [9],0.40 10^4 E · mol^-1
same,"T1/2, time for reaching half the maximum intensity after the maximum time",[1]; [9],6 s
same,"Tmax, time for reaching the maximum intensity",[1]; [9],12 s
same,"Imax, maximum intensity",[1]; [10],0.3 A.U.
same,"RC, chemiluminescence efficiency",[1]; [10],0.20 10^4 E · mol^-1
same,"T1/2, time for reaching half the maximum intensity after the maximum time",[1]; [10],4.8 s
same,"Tmax, time for reaching the maximum intensity",[1]; [10],12 s
same,"Imax, maximum intensity",[1]; pH 4,24 A.U.
same,"RC, chemiluminescence efficiency",[1]; pH 4,1.52 10^4 E · mol^-1
same,"T1/2, time for reaching half the maximum intensity after the maximum time",[1]; pH 4,300 s
same,"Tmax, time for reaching the maximum intensity",[1]; pH 4,48 s
same,chemiluminescence efficiency as a function of pH,[1]; pH 4 to 8,rises up to pH6 and then falls
same,maximum intensity as a function of pH,[1]; pH 4 to 8,increases significantly with the pH
same,"Imax, maximum intensity",[1]; pH 5,17 A.U.
same,"RC, chemiluminescence efficiency",[1]; pH 5,1.58 10^4 E · mol^-1
same,"T1/2, time for reaching half the maximum intensity after the maximum time",[1]; pH 5,360 s
same,"Tmax, time for reaching the maximum intensity",[1]; pH 5,60 s
same,"Imax, maximum intensity",[1]; pH 6,25 A.U.
same,"RC, chemiluminescence efficiency",[1]; pH 6,2.34 10^4 E · mol^-1
same,"T1/2, time for reaching half the maximum intensity after the maximum time",[1]; pH 6,336 s
same,"Tmax, time for reaching the maximum intensity",[1]; pH 6,48 s
same,"Imax, maximum intensity",[1]; pH 7,110 A.U.
same,"RC, chemiluminescence efficiency",[1]; pH 7,2.23 10^4 E · mol^-1
same,"T1/2, time for reaching half the maximum intensity after the maximum time",[1]; pH 7,108 s
same,"Tmax, time for reaching the maximum intensity",[1]; pH 7,24 s
same,"Imax, maximum intensity",[1]; pH 8,245 A.U.
same,"RC, chemiluminescence efficiency",[1]; pH 8,1.60 10^4 E · mol^-1
same,"T1/2, time for reaching half the maximum intensity after the maximum time",[1]; pH 8,24 s
same,"Tmax, time for reaching the maximum intensity",[1]; pH 8,12 s
same,Tmax and T1/2 as a function of pH,[1]; pH beyond 5,decrease when the pH increases beyond 5
same,"ε, molecular extinction coefficient",[2],23000 M⁻¹ cm⁻¹
same,"S, fluorescence sensitivity",[2],36 10^3
same,"comparison of fluorescence, absorbance and chemiluminescence properties","[2]; Tables 2 and 3, versus coumarin-1 and coumarin-311","has the best fluorescence, absorbance and chemiluminescence properties"
same,"RF, quantum efficiency of fluorescence",[2],0.57
"Cc1cc(=O)oc2cc(N(C)C)ccc12 [COUMARIN-311, dimethylamino-7 methyl-4 coumarin]","RC, quantum efficiency of chemiluminescence",[1]; DNPO and H2O2,0.13 10^2 E · mole^-1
same,"RE, excitation efficiency",[1]; DNPO and H2O2,0.24 10^-2
same,"RC, quantum efficiency of chemiluminescence","[1]; TCPO and H2O2, pH 7.5",0.17 10^2 E · mole^-1
same,"RE, excitation efficiency","[1]; TCPO and H2O2, pH 7.5",0.0032
same,"ε, molecular extinction coefficient",[2],26900 M⁻¹ cm⁻¹
same,"S, fluorescence sensitivity",[2],40 10^3
same,"RF, quantum efficiency of fluorescence",[2],0.52
"O=C(Cc1cc(=O)oc2c3c4c(cc12)CCCN4CCC3)ON1C(=O)CCC1=O [luminarine-1, tetrahydro-2,3,6,7,1H,5H, 11H(1)-benzo-pyrano(6,7,8-ij) succinimidoxycarbonylmethyl-9 quinolizinone-11]",solubility,[3],~1 mg/mL
same,stability of solution at ambient temperature,"[4]; ambient temperature, hydrolysis to acid (VIII)",deteriorates significantly in a few hours at ambient temperature
same,stability of frozen solution,[4]; frozen,at least two months without any apparent deterioration
C=C[C@H]1CN2CC[C@H]1C[C@H]2[C@H](O)c1ccnc2ccc(OC)cc12 [quinine disulphate],quantum efficiency of fluorescence (reference),[5],0.546
